Tested on: K86415-001-R-J1-PDC complex spheroids, viability
Assay: Anticancer human tumor K86415-001-R-J1-PDC patient-derived lung adenocarcinoma cell line growth inhibition [RAS]
Settings: for IC50: curve of first compound; for viability, T/C: stronger effect = lower value
Summary of the method: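 Agents were tested in combination matrices in half-log decrements from a top concentration at or near clinical Cmax (10 microM if undetermined). Targets were multi-cell spheroids of tumour lines plus HUVEC and MSC stromal cells.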
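Also: spheroids exposed to agents for seven days before readout.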

`CC1(C)CCC(Nc2ncc(C(F)(F)F)c(-c3c[nH]c4c(P(C)(C)=O)c(C#N)ccc34)n2)CN1` (centres undefined) + CCn1c(-c2cccnc2C(C)OC)c2c3cc(ccc31)N1CCOC(CC(NC(=O)C(C(C)C)N(C)C(=O)C3(F)CCN(C(=O)C#CC(C)(C)N(C)C)CC3)C(=O)N3CCCC(N3)C(=O)OCC(C)(C)C2)C1 was tested, and the IC50 (second compound 0.000949 µM) was < 0.949 nM, the IC50 (second compound 0.003 µM) was < 0.949 nM and the IC50 (second compound 0.00949 µM) was < 0.949 nM. For the same molecule, the IC50 (second compound 0.03 µM) was < 0.949 nM, the IC50 (second compound 0.0949 µM) was < 0.949 nM and the IC50 (second compound 0.3 µM) was < 0.949 nM. It also gave a viability, T/C (second compound 0.000949 µM, first compound 0.000949 µM) of 46.4%, a viability, T/C (second compound 0.000949 µM, first compound 0.003 µM) of 48.8% and a viability, T/C (second compound 0.000949 µM, first compound 0.00949 µM) of 35.2%. It also gave a viability, T/C (second compound 0.000949 µM, first compound 0.03 µM) of 57.9%, a viability, T/C (second compound 0.000949 µM, first compound 0.0949 µM) of 54.9% and a viability, T/C (second compound 0.000949 µM, first compound 0.3 µM) of 41.8%. For the same molecule, the viability, T/C (second compound 0.003 µM, first compound 0.000949 µM) was 15.9%, the viability, T/C (second compound 0.003 µM, first compound 0.003 µM) was 14.2% and the viability, T/C (second compound 0.003 µM, first compound 0.00949 µM) was 17.2%. The viability, T/C (second compound 0.003 µM, first compound 0.03 µM) was 19.4%, the viability, T/C (second compound 0.003 µM, first compound 0.0949 µM) was 22.6% and the viability, T/C (second compound 0.003 µM, first compound 0.3 µM) was 20.4%. For the same molecule, the viability, T/C (second compound 0.00949 µM, first compound 0.000949 µM) was 13.5%, the viability, T/C (second compound 0.00949 µM, first compound 0.003 µM) was 12.7% and the viability, T/C (second compound 0.00949 µM, first compound 0.00949 µM) was 16.5%. The viability, T/C (second compound 0.00949 µM, first compound 0.03 µM) was 20.3%, the viability, T/C (second compound 0.00949 µM, first compound 0.0949 µM) was 20.1% and the viability, T/C (second compound 0.00949 µM, first compound 0.3 µM) was 21.1%. The viability, T/C (second compound 0.03 µM, first compound 0.000949 µM) was 13.3%, the viability, T/C (second compound 0.03 µM, first compound 0.003 µM) was 16.3% and the viability, T/C (second compound 0.03 µM, first compound 0.00949 µM) was 17%. It also gave a viability, T/C (second compound 0.03 µM, first compound 0.03 µM) of 13.9%, a viability, T/C (second compound 0.03 µM, first compound 0.0949 µM) of 14.8% and a viability, T/C (second compound 0.03 µM, first compound 0.3 µM) of 21.1%. It also gave a viability, T/C (second compound 0.0949 µM, first compound 0.000949 µM) of 12.1%, a viability, T/C (second compound 0.0949 µM, first compound 0.003 µM) of 17.4% and a viability, T/C (second compound 0.0949 µM, first compound 0.00949 µM) of 17.6%. The viability, T/C (second compound 0.0949 µM, first compound 0.03 µM) was 19.6%, the viability, T/C (second compound 0.0949 µM, first compound 0.0949 µM) was 15.4% and the viability, T/C (second compound 0.0949 µM, first compound 0.3 µM) was 20.1%. The viability, T/C (second compound 0.3 µM, first compound 0.000949 µM) was 15.7%, the viability, T/C (second compound 0.3 µM, first compound 0.003 µM) was 15.3% and the viability, T/C (second compound 0.3 µM, first compound 0.00949 µM) was 16.7%. The viability, T/C (second compound 0.3 µM, first compound 0.03 µM) was 14.6%, the viability, T/C (second compound 0.3 µM, first compound 0.0949 µM) was 18.2% and the viability, T/C (second compound 0.3 µM, first compound 0.3 µM) was 20.9%.

For `CC(C)NCC(C(=O)N1CCN(c2ncnc3c2C(C)CC3O)CC1)c1ccc(Cl)cc1` (centres undefined), the viability, T/C (compound 0.0316 µM) was 109% [middle of 4 runs], the viability, T/C (compound 0.316 µM) was 97.9% [middle of 4 runs] and the viability, T/C (compound 1 µM) was 92.2% [middle of 4 runs]. For the same molecule, the viability, T/C (compound 3.16 µM) was 65% [middle of 4 runs] and the viability, T/C (compound 10 µM) was 49.1% [middle of 4 runs].

`C=CC(=O)Nc1cc(Nc2nccc(-c3cn(C)c4ccccc34)n2)c(OC)cc1N(C)CCN(C)C` + CCn1c(-c2cccnc2C(C)OC)c2c3cc(ccc31)N1CCOC(CC(NC(=O)C(C(C)C)N(C)C(=O)C3(F)CCN(C(=O)C#CC(C)(C)N(C)C)CC3)C(=O)N3CCCC(N3)C(=O)OCC(C)(C)C2)C1 was tested, and the IC50 (second compound 0.000949 µM) was < 3.16 nM, the IC50 (second compound 0.003 µM) was < 3.16 nM and the IC50 (second compound 0.00949 µM) was < 3.16 nM. For the same molecule, the IC50 (second compound 0.03 µM) was < 3.16 nM, the IC50 (second compound 0.0949 µM) was < 3.16 nM and the IC50 (second compound 0.3 µM) was < 3.16 nM. The viability, T/C (second compound 0.000949 µM, first compound 0.00316 µM) was 34.5%, the viability, T/C (second compound 0.000949 µM, first compound 0.01 µM) was 31.8% and the viability, T/C (second compound 0.000949 µM, first compound 0.0316 µM) was 17%. It also gave a viability, T/C (second compound 0.000949 µM, first compound 0.1 µM) of 25.6%, a viability, T/C (second compound 0.000949 µM, first compound 0.316 µM) of 18.3% and a viability, T/C (second compound 0.000949 µM, first compound 1 µM) of 9.09%. It also gave a viability, T/C (second compound 0.003 µM, first compound 0.00316 µM) of 14.9%, a viability, T/C (second compound 0.003 µM, first compound 0.01 µM) of 11.9% and a viability, T/C (second compound 0.003 µM, first compound 0.0316 µM) of 10.1%. For the same molecule, the viability, T/C (second compound 0.003 µM, first compound 0.1 µM) was 8.82%, the viability, T/C (second compound 0.003 µM, first compound 0.316 µM) was 6.15% and the viability, T/C (second compound 0.003 µM, first compound 1 µM) was 5.63%. For the same molecule, the viability, T/C (second compound 0.00949 µM, first compound 0.00316 µM) was 11.9%, the viability, T/C (second compound 0.00949 µM, first compound 0.01 µM) was 11.1% and the viability, T/C (second compound 0.00949 µM, first compound 0.0316 µM) was 11.4%. For the same molecule, the viability, T/C (second compound 0.00949 µM, first compound 0.1 µM) was 7.32%, the viability, T/C (second compound 0.00949 µM, first compound 0.316 µM) was 5.35% and the viability, T/C (second compound 0.00949 µM, first compound 1 µM) was 5.16%. For the same molecule, the viability, T/C (second compound 0.03 µM, first compound 0.00316 µM) was 10.2%, the viability, T/C (second compound 0.03 µM, first compound 0.01 µM) was 11.1% and the viability, T/C (second compound 0.03 µM, first compound 0.0316 µM) was 9.36%. For the same molecule, the viability, T/C (second compound 0.03 µM, first compound 0.1 µM) was 8.38%, the viability, T/C (second compound 0.03 µM, first compound 0.316 µM) was 5.05% and the viability, T/C (second compound 0.03 µM, first compound 1 µM) was 4.02%. It also gave a viability, T/C (second compound 0.0949 µM, first compound 0.00316 µM) of 12.5%, a viability, T/C (second compound 0.0949 µM, first compound 0.01 µM) of 11.2% and a viability, T/C (second compound 0.0949 µM, first compound 0.0316 µM) of 10.2%. For the same molecule, the viability, T/C (second compound 0.0949 µM, first compound 0.1 µM) was 8.51%, the viability, T/C (second compound 0.0949 µM, first compound 0.316 µM) was 5.53% and the viability, T/C (second compound 0.0949 µM, first compound 1 µM) was 5.3%. The viability, T/C (second compound 0.3 µM, first compound 0.00316 µM) was 13.1%, the viability, T/C (second compound 0.3 µM, first compound 0.01 µM) was 11.4% and the viability, T/C (second compound 0.3 µM, first compound 0.0316 µM) was 11.9%. For the same molecule, the viability, T/C (second compound 0.3 µM, first compound 0.1 µM) was 5.28%, the viability, T/C (second compound 0.3 µM, first compound 0.316 µM) was 5.37% and the viability, T/C (second compound 0.3 µM, first compound 1 µM) was 4.83%.

Reference: PubChem BioAssay AID2060893 (Molecular Pharmacology Branch, DTP, NCI, 2025)
